Data taken from patent US20090137593A1, “4-AMINO-2,6-DIMETHYLPHENOL COMPOUND, PROCESS FOR ITS PREPARATION AND PHARMACEUTICAL COMPOSITION COMPRISING THE SAME” (AZIEN CHIM RIUNITE ANGEL FRANC A.C.R.A.F. S.P.A., priority 2006, published 2009).
Structures can show the parent of a compound that is named as a salt.

Tests used:
[1] = tested on: yeast-induced febrile response; assay: Anti-pyretic activity (yeast-induced febrile response, rectal temperature); assay type: in vivo, Male CD rats; details: CD rats; for effect on the febrile response (rectal temperature): 30 mg/kg ip 18 hours after yeast, FIG. 1
Description: This test allows in vivo evaluation of the effects on the yeast-induced febrile response. Male CD rats weighing 101-125 g were used. Fevers were induced by subcutaneous injection of a 15% yeast suspension. 18 hours after the administration of yeast, a first group of animals was treated intraperitoneally (30 mg/kg) with Compound 2, while a second group of animals was treated with the Comparison Compound. A third group of control animals received intraperitoneally only the vehicle (methylcellulose) used to administer the tested compounds. For all the groups, the rectal temperature was measured 30 minutes and 1, 2 and 4 hours after the treatment.

[2] = tested on: nociceptive response induced by mechanical hyperalgesia; assay: Anti-nociceptive activity (carrageenan-induced mechanical hyperalgesia, analgesimeter); assay type: in vivo, Male CD rats; details: Rattus norvegicus; CD rats, ip 2 hours after carrageenan, evaluated 1, 2 and 4 hours after treatment; read-out: ED50 (anti-nociceptive, mechanical pain threshold)
enzyme 5-LO = target: T1, enzyme 5-LO (Homo sapiens, UniProt P09917); assay: Effect on the enzyme 5-LO in vitro (human PMNL cells, arachidonic acid substrate, leukotriene quantification); assay type: cell-based; details: arachidonic acid as substrate, leukotriene (LT4) quantified
T1 construct: Human PMNL cells (polymorphonuclear leukocytes) were used; endogenous in cells; host or cells: human polymorphonuclear leukocytes (PMNL)
T1 sequence (P09917 1-674): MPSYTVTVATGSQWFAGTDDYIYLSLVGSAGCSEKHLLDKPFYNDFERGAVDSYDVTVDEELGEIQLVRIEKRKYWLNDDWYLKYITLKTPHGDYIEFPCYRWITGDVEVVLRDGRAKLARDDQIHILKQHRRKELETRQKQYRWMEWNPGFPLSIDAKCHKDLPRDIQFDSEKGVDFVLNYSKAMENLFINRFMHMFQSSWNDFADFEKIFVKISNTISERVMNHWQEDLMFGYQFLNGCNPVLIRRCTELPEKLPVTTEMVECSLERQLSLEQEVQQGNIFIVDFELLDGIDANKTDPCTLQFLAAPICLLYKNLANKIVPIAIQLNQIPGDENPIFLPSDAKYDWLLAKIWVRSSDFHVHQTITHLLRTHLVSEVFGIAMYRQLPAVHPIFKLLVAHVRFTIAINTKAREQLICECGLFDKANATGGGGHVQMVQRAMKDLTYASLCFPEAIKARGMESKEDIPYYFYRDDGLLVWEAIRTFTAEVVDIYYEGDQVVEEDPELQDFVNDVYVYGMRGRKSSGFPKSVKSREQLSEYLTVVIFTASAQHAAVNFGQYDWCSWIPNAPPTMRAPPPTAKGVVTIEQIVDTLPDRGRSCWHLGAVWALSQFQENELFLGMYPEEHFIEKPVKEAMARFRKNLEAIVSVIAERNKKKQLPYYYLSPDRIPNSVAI
Description: Human PMNL cells (polymorphonuclear leukocytes) were used.
The cells were incubated in the presence of N-(4-hydroxy-3,5-di-methylphenyl)-2-morpholin-4-yl acetamide hydrochloride (Compound 2), using arachidonic acid as reaction substrate.
The activity of the enzyme 5-LO was evaluated by quantifying leukotriene […], which is the final product of the enzymatic reaction.

[3] = tested on: 5-LO-mediated bronchoconstriction; assay: Effect on 5-LO-mediated bronchoconstriction in vivo (ovalbumin-sensitized guinea pigs, intratracheal pressure); details: Cavia porcellus, 100 mg/kg ip, 30 minutes before ovalbumin 15 μg/kg iv, read-out: percentage of inhibition of bronchoconstriction
Description: Guinea pigs weighing 250-400 g were used.
The animals were sensitized by administration on days 1 and 8 of ovalbumin (0.5 μg/animal, ip). Between days 19 and 23 after the sensitization, the capacity of ovalbumin (15 μg/kg, iv) to induce bronchoconstriction was tested by measuring the increase in intratracheal pressure.
On the day of the test, 30 minutes after administration of Compound 2 (100 mg/kg, ip), the animals were treated with mepiramine (2 mg/kg, iv), indomethacin (10 mg/kg, iv) and propranolol (0.1 mg/kg, iv), and then received ovalbumin (15 μg/kg, iv) to induce bronchoconstriction. The control animals received intraperitoneally only the vehicle used (methylcellulose) for the administration of the tested compound.
The effects on 5-LO-mediated bronchoconstriction in vivo were evaluated by measuring the intratracheal pressure, and are expressed as a percentage of inhibition of bronchoconstriction.

PAN-induced nephrosis = assay: Effects on PAN-induced nephrosis (proteinuria over 24 hours); assay type: in vivo, Male SD rats; details: Rattus norvegicus, SD rats, 100 mg/kg ip on seventh day, read-out: percentage of inhibition of the amount of protein excreted (PAN-induced nephrosis)
Description: This test allows the in vivo evaluation of the effects on renal damage induced by the inflammatory response following the administration of PAN (puromycin aminonucleoside). Male SD rats weighing 180-220 g were used. The nephrosis was induced by intravenous injection of PAN (100 mg/kg). On the sixth day of administration of PAN, the presence of nephrosis was determined by measuring the amount of protein excreted in the urine over 24 hours (basal proteinuria). On the seventh day, the rats were treated intraperitoneally with Compound 2 (100 mg/kg) and for the next 24 hours the urine was collected to measure the proteinuria. By following the same method, the control animals received, intraperitoneally, only the vehicle (methylcellulose) used to administer the tested compound. The effects on the PAN-induced nephrosis were evaluated by measuring the proteinuria over 24 hours and expressed as a percentage of inhibition of the amount of protein excreted.

[4] = tested on: nephritis induced by anti-GBM antibodies; assay: Effects on nephritis induced by anti-GBM antibodies (proteinuria over 24 hours); assay type: in vivo, Male WKY rats; details: Rattus norvegicus, WKY rats, 100 mg/kg ip, 2 administrations per day, tenth day, read-out: percentage of inhibition of the amount of protein excreted (anti-GBM nephritis)
Description: This test allows evaluation in vivo of the effects on renal damage induced by the inflammatory response following the administration of anti-GBM antibodies (anti-glomerular basal membrane antibodies). Male WKY rats weighing 180-220 g were used. The nephritis was induced by intravenous injection of anti-GBM antibodies. Immediately after administration of the antibody and 6 hours later, Compound 2 was administered intraperitoneally (100 mg/kg). The treatment was continued for the following 9 days, with 2 administrations per day of the tested product. By following the same methods, the control animals received only the vehicle (methylcellulose) used to administer the tested compound. On the tenth day from injection of the antibodies, the effects on nephritis were evaluated by measuring the proteinuria over 24 hours and expressed as a percentage of inhibition of the amount of protein excreted.

[5] = tested on: 5-LO-mediated bronchoconstriction; details: Sakuma Y et al., Prostaglandins, 1991; cited from earlier work

Which results are given for `Cc1cc(NC(=O)CCN2CCOCC2)cc(C)c1O` [Comparison Compound, N-(4-Hydroxy-3,5-dimethylphenyl)-3-morpholin-4-yl propanamide hydrochloride, reference compound]?
effect on the febrile response (rectal temperature) [1]: incapable of reducing the febrile response; ED50 [2]: > 100 mg/kg

For `Cc1cc(NC(=O)CN2CCOCC2)cc(C)c1O` [Compound 2, N-(4-Hydroxy-3,5-dimethylphenyl)-2-morpholin-4-yl acetamide hydrochloride], which IC50 (enzyme 5-LO) is on record?
Its IC50 is 31 µM.

What about the inhibition at 100 mg/kg [3] of the same molecule?
Its inhibition at 100 mg/kg is 7%.

And the inhibition at 100 mg/kg (PAN-induced nephrosis)?
The inhibition at 100 mg/kg was 2%.

And the inhibition at 100 mg/kg [4]?
Its inhibition at 100 mg/kg is 1%.

What about the “duration of the anti-pyretic effects” value ([1]; 30 mg/kg ip) of the same molecule?
Its value is “about 4 hours”.

And the “time to significant reduction in the febrile response after treatment” value ([1]; 30 mg/kg ip)?
The value was ≤ 1 h.

What about the “effect on the febrile response (rectal temperature)” value [1] of the same molecule?
The value was “significant reduction in the febrile response”.

And the ED50 [2]?
The ED50 was 3 mg/kg.

Which “percentage of inhibition of bronchoconstriction (literature reference)” value [5] does the source give for `O=C1CCN(c2ccccc2)N1` [phenidone] here?
Its value is 86%.
